# Source: patent publication US8703951B2, “Synthesis of 4H-benzo[D]pyrrolo[1,2-A]thiazoles and indolizino[6,7-b]indole derivatives and their use as antitumor therapeutic agents” (Academia Sinica, priority 2011, dated 2014)
# Read-outs that look alike come from different tables or passages of the source.
# Key:
# glioma U87 = test: In vitro cytotoxicity, Alamar blue assay, U87; format: cell-based, human
# Description: (§1) Prostate cancer PC3, non-small cell lung carcinoma cells H1299, and human glioma cells U87 were purchased from the American Type Culture Collection (Rockville, Md.). OECM-1 (human gingival squamous cell carcinoma cells) was obtained from Dr C.-L. Meng (National Defense Medical College, Taiwan).^22
# (§2) In preparation for in vitro cytotoxicity assays, cells were cultured at an initial density 2−5×10^4 cells per milliliter. They were maintained in a 5% CO2-humidified atmosphere at 37° C. in RPMI medium 1640 (GIBCO/BRL) containing penicillin (100 units/mL), streptomycin (100 μg/mL, GIBCO/BRL), and 5% heat-inactivated FBS. For cells grown in suspension (such as CCRF-CEM and its sublines), cytotoxicity was measured, by using XTT microculture method^23 in 96-well microtiter plates.
# (§3) The cytotoxic effects of the newly synthesized compounds were determined in T-cell acute lymphocytic leukemia (CCRF-CEM) and their resistant subcell lines (CCRF-CEM/Taxol and CCRF-CEM/VBL) by the XTT assay^24 and human solid tumor cells (i.e. breast carcinoma MX-1 and colon carcinoma HCT-116) by the SRB assay^25 in a 72 h incubation using a microplate spectrophotometer as described previously.^25 After the addition of phenazine methosulfate-XTT solution, incubated at 37° C. for 6 h and absorbance at 450 and 630 nm was detected on a microplate reader (EL 340). The cytotoxicity of the newly synthesized compounds against non-small cell lung carcinoma H1299, prostate cancer PC3, oral cancer OECM-1 and glioma U87 were determined by the Alamar blue assay^26 in a 72 h incubation using a microplate spectrophotometer as described previously. After the addition of alamar blue solution, it was incubated at 37° C. for 6 h. Absorbance at 570 and 600 nm was detected on a microplate reader. IC50 values were determined from dose-effect relationship at six or seven concentrations of each drug using the CompuSyn software by Chou and Martin^27 based on the median-effect principle and plot.^28,29 Ranges given for Cisplatin were mean±SE (n=4).
# prostate cancer PC3 = test: In vitro cytotoxicity, Alamar blue assay, PC3; format: cell-based, human
# Description: as §1, §2, §3
# [1] = system: non-small cell lung carcinoma H1299; test: In vitro cytotoxicity, Alamar blue assay, H1299; format: cell-based, human
# Description: as §1, §2, §3
# oral cancer OECM-1 = test: In vitro cytotoxicity, Alamar blue assay, OECM-1; format: cell-based, human
# Description: as §1, §2, §3
# [2] = system: human lymphoblastic leukemia (CCRF-CEM); test: In vitro cytotoxicity, XTT assay, CCRF-CEM; format: cell-based
# Source text: (§4) Human colon carcinoma HCT-116 cells and human prostate adenocarcinoma PC-3 cells were obtained from American Type Culture Collection (ATCC, Rockville, Md.). Human mammary carcinoma (MX-1) tumor cells were obtained from MSKCC cell bank. The CCRF-CEM human lymphoblastic leukemia cells and their vinblastine resistant subline (CCRF-CEM/VBL, 680-fold resistance in vitro) were obtained from Dr. William Beck of the University of Illinois, Chicago, and CCRF-CEM/Taxol (330-fold resistance in vitro). Resistant cells CCRF-CEM/taxol were produced by exposing the parent cells to increasing sublethal concentration (IC50-IC90) of paclitaxel for six months.
# as §2, §3
# colon carcinoma HCT-116 = test: In vitro cytotoxicity, SRB assay, HCT-116; format: cell-based, human
# Source text: as §4, §2, §3
# breast carcinoma MX-1 = test: In vitro cytotoxicity, SRB assay, MX-1; format: cell-based, human
# Source text: as §4, §2, §3
# CCRF-CEM/Taxol = test: In vitro cytotoxicity, XTT assay, CCRF-CEM/Taxol; format: cell-based, human; conditions: Table 5; for IC50: Taxol-resistant subline, XTT, 72 h, read-out: Cell Growth inhibition (IC50 μM) CCRF-CEM/Taxol; for fold of cross-resistant vs IC50 of the parent cell line, CCRF-CEM/Taxol: number in brackets
# Source text: as §4, §2, §3
# CCRF-CEM/VBL = test: In vitro cytotoxicity, XTT assay, CCRF-CEM/VBL; format: cell-based, human; conditions: Table 5; for IC50: vinblastine-resistant subline, XTT, 72 h, read-out: Cell Growth inhibition (IC50 μM) CCRF-CEM/VBL; for fold of cross-resistant vs IC50 of the parent cell line, CCRF-CEM/VBL: number in brackets
# Source text: as §4, §2, §3
# [3] = Homo sapiens, CCRF-CEM, Table 5, 72 h incubation, read-out: Cell Growth inhibition (IC50 μM) CCRF-CEM
# [4] = Homo sapiens, HCT-116, Table 6, 72 h
# [5] = Homo sapiens, NCI-H1299, Table 6, 72 h
# [6] = Homo sapiens, OECM1, Table 6, 72 h
# [7] = Table 5, 72 h incubation, read-out: Cell Growth inhibition (IC50 μM) CCRF-CEM
# [8] = Table 7, 72 h, read-out: IC50 (μM) CCRF/CEM
Structure (SMILES),"IC50 (glioma U87; Table 6, 72 h)","IC50 (prostate cancer PC3; Table 6, 72 h)","IC50 ([1]; Table 6, 72 h)","IC50 (oral cancer OECM-1; Table 6, 72 h)","IC50 [2, 3]","IC50 (CCRF-CEM/Taxol; Homo sapiens, CCRF-CEM)","fold of cross-resistant vs IC50 of the parent cell line, CCRF-CEM/Taxol (CCRF-CEM/Taxol)","IC50 (CCRF-CEM/VBL; Homo sapiens, CCRF-CEM)","fold of cross-resistant vs IC50 of the parent cell line, CCRF-CEM/VBL (CCRF-CEM/VBL)","IC50 [2, 7]",IC50 (CCRF-CEM/Taxol),IC50 (CCRF-CEM/VBL),further results
"N.N.[Cl][Pt][Cl] [Cisplatin, reference compound]",54.6 ± 3.33 µM,4.71 ± 0.66 µM,16.5 ± 0.9 µM,2.44 ± 0.53 µM,,,,,,,,,"IC50 (glioma U87; Table 7, 72 h): 54.6 ± 3.33 µM; IC50 (prostate cancer PC3; Table 7, 72 h): 4.71 ± 0.66 µM; IC50 ([1]; Table 7, 72 h): 16.5 ± 0.9 µM; IC50 (oral cancer OECM-1; Table 7, 72 h, read-out: IC50 (μM) OECM1): 2.44 ± 0.53 µM"
"Cc1c(CO)c(CO)c2sc3ccccc3n12 [Compound 18a, (1-Methylbenzo[d]pyrrolo[2,1-b]thiazole-2,3-diyl)dimethanol]",,,,,0.97 ± 0.03 µM,1.88 ± 0.007 µM,1.93 ×,1.86 ± 0.01 µM,1.91 ×,,,,"IC50 (colon carcinoma HCT-116; [4]): 4.44 ± 0.08 µM; IC50 (breast carcinoma MX-1; Homo sapiens, Table 6, 72 h): 7.1 ± 0.037 µM"
"OCc1c(CO)c2sc3ccccc3n2c1-c1ccc(F)cc1 [Compound 18b, (1-(4-Fluorophenyl)benzo[d]pyrrolo[2,1-b]thiazole-2,3-diyl)dimethanol]",,,,,1.06 ± 0.04 µM,2.56 ± 0.012 µM,2.41 ×,3.72 ± 0.175 µM,3.50 ×,,,,"IC50 (glioma U87; Homo sapiens, Table 6, 72 h): 15.5 ± 1.31 µM; IC50 (colon carcinoma HCT-116; [4]): 9.59 ± 0.19 µM; IC50 (breast carcinoma MX-1; Homo sapiens, Table 6, 72 h): 2.77 ± 0.005 µM; IC50 (prostate cancer PC3; Homo sapiens, Table 6, 72 h): 13.8 ± 2.15 µM; IC50 [1, 5]: 9.27 ± 1.69 µM; IC50 (oral cancer OECM-1; [6]): 6.03 ± 1.2 µM"
"OCc1c(CO)c2sc3ccccc3n2c1-c1ccc(F)c(F)c1 [Compound 18d, (1-(3,4-Difluorophenyl)benzo[d]pyrrolo[2,1-b]thiazole-2,3-diyl)dimethanol]",,,,,0.19 ± 0.02 µM,0.19 ± 0.004 µM,100 ×,0.28 ± 0.006 µM,1.47 ×,,,,"IC50 (glioma U87; Homo sapiens, Table 6, 72 h): 17.4 ± 1.86 µM; IC50 (prostate cancer PC3; Homo sapiens, Table 6, 72 h): 15.2 ± 1.86 µM; IC50 [1, 5]: 21.4 ± 3.74 µM; IC50 (oral cancer OECM-1; [6]): 8.48 ± 0.67 µM"
"OCc1c(CO)c2sc3ccccc3n2c1C1CC1 [Compound 18j, (1-Cyclopropylbenzo[d]pyrrolo[2,1-b]thiazole-2,3-diyl)dimethanol]",,,,,0.97 ± 0.07 µM,2.31 ± 0.0048 µM,2.37 ×,2.44 ± 0.01 µM,2.51 ×,,,,"IC50 (glioma U87; Homo sapiens, Table 6, 72 h): 28.7 ± 4.32 µM; IC50 (prostate cancer PC3; Homo sapiens, Table 6, 72 h): 10.7 ± 2.29 µM; IC50 [1, 5]: 13.3 ± 2.23 µM; IC50 (oral cancer OECM-1; [6]): 7.12 ± 0.95 µM"
"CCNC(=O)OCc1c(COC(=O)NCC)c2sc3ccccc3n2c1C [Compound 19a, (1-Methylbenzo[d]pyrrolo[2,1-b]thiazole-2,3-diyl)bis(methylene)bis(ethylcarbamate)]",,,,,,,1.30 ×,,1.30 ×,0.33 ± 0.01 µM,0.45 ± 0.013 µM,0.43 ± 0.003 µM,
"CCNC(=O)OCc1c(COC(=O)NCC)c2sc3ccccc3n2c1-c1ccc(F)cc1 [Compound 19b, (1-(4-Fluorophenyl)benzo[d]pyrrolo[2,1-b]thiazole-2,3-diyl)bis(methylene)bis(ethylcarbamate)]",29.2 ± 2.63 µM,23.7 ± 3.05 µM,13.6 ± 2.03 µM,11.5 ± 2.63 µM,,,5.42 ×,,6.42 ×,0.07 ± 0.0002 µM,0.38 ± 0.002 µM,0.45 ± 0.033 µM,"IC50 (colon carcinoma HCT-116; Table 6, 72 h): 0.52 ± 0.025 µM; IC50 (breast carcinoma MX-1; Table 6, 72 h): 0.48 ± 0.005 µM"
"CCNC(=O)OCc1c(COC(=O)NCC)c2sc3ccccc3n2c1-c1ccc(F)c(F)c1 [Compound 19d, (1-(3,4-Difluorophenyl)benzo[d]pyrrolo[2,1-b]thiazole-2,3-diyl)bis(methylene)bis(ethylcarbamate)]",38.5 ± 7.21 µM,19.3 ± 3.44 µM,10.3 ± 1.11 µM,14.6 ± 3.39 µM,,,1.61 ×,,1.47 ×,0.21 ± 0.01 µM,0.34 ± 0.008 µM,0.31 ± 0.002 µM,"IC50 (colon carcinoma HCT-116; Table 6, 72 h): 1.1 ± 0.015 µM; IC50 (breast carcinoma MX-1; Table 6, 72 h): 1.49 ± 0.04 µM"
"CCNC(=O)OCc1c(COC(=O)NCC)c2sc3ccccc3n2c1C1CC1 [Compound 19j, (1-Cyclopropylbenzo[d]pyrrolo[2,1-b]thiazole-2,3-diyl)bis(methylene)bis(ethylcarbamate)]",74.5 ± 8.7 µM,24.2 ± 2.96 µM,20.6 ± 1.89 µM,26.3 ± 4.44 µM,,,4.01 ×,,3.18 ×,0.17 ± 0.03 µM,0.68 ± 0.004 µM,0.54 ± 0.008 µM,
"CC(C)NC(=O)OCc1c(COC(=O)NC(C)C)c2sc3ccccc3n2c1C1CC1 [Compound 20j, (1-Cyclopropylbenzo[d]pyrrolo[2,1-b]thiazole-2,3-diyl)bis(methylene)bis(iso-propyl-carbamate)]",45.5 ± 6.19 µM,13.4 ± 0.84 µM,20.4 ± 1.65 µM,9.67 ± 1.06 µM,,,7.30 ×,,9.00 ×,0.1 ± 0.01 µM,0.73 ± 0.013 µM,0.9 ± 0.011 µM,
"CCNC(=O)OCc1c(COC(=O)NCC)c(-c2ccc(Cl)cc2)n2c1Cc1c(n(C)c3ccccc13)C2 [Compound 27d, [3-(4-Chlorophenyl)-6-methyl-6,11-dihydro-5H-indolizino[6,7-b]indole-1,2-diyl]bis(methylene)bis(ethylcarbamate)]",,,,,,,,,,,,,"IC50 [2, 8]: 0.35 ± 0.013 µM; IC50 (colon carcinoma HCT-116; Table 7, 72 h): 1.17 ± 0.009 µM; IC50 (breast carcinoma MX-1; Table 7, 72 h): 1.83 ± 0.082 µM"
"CC(C)NC(=O)OCc1c(COC(=O)NC(C)C)c(-c2ccc(Cl)cc2)n2c1Cc1c(n(C)c3ccccc13)C2 [Compound 28d, [3-(4-Chlorophenyl)-6-methyl-6,11-dihydro-5H-indolizino[6,7-b]indole-1,2-diyl]bis(methylene) (isopropylcarbamate)]",,,,,,,,,,,,,"IC50 [2, 8]: 0.437 ± 0.003 µM; IC50 (colon carcinoma HCT-116; Table 7, 72 h): 3.06 ± 0.067 µM; IC50 (breast carcinoma MX-1; Table 7, 72 h): 12.39 ± 0.05 µM"
